# Where two headings read alike, the source gives them in different places.
# Experiments:
# Proteus vulgaris species = assay: MIC in vitro, plate test (agar), Table 1; assay type: cell-based; details: about 37° C, readings 24 and 48 h
# Procedure: (§1) The minimum inhibitory concentrations in vitro for some of the new compounds shown in Table 1 (MIC) were determined by the plate test in an agar medium of the following composition: |proteose peptone 10.0 g per liter |5.1 × 10^3 germs were inoculated per plate. […]. Readings were taken after 24 and 48 hours, and the incubation temperature was about 37° C.
# [1] = test system: Streptococcus faecalis ATCC 13; assay: MIC, series dilution test (complete medium), Table 2; assay type: cell-based; details: Enterococcus faecalis, ATCC13, 37° C, 18, 24 and 48 h, read-out: Minimum inhibitory concentration (MIC)
# Procedure: (§2) Minimum inhibitory concentration (MIC) in γ/ml of medium, measured by the series dilution test (complete medium), incubation temperatures: 37° C, determination of the MIC after 18, 24 and 48 hours.
# [2] = test system: Staphylococcus aureus BRL; assay: as above; assay type: cell-based; details: 37° C, 18, 24 and 48 h, read-out: Minimum inhibitory concentration (MIC)
# Procedure: as §2
# Proteus vulgaris 3400 = assay: as above; assay type: cell-based; details: 37° C, 18, 24 and 48 h, read-out: Minimum inhibitory concentration (MIC)
# Procedure: as §2
# Escherichia coli 55 B 5 = assay: as above; assay type: cell-based; details: 55B5, 37° C, 18, 24 and 48 h, read-out: Minimum inhibitory concentration (MIC)
# Procedure: as §2
# [3] = test system: Streptococcus faecalis ATCC 8699; assay: as above; assay type: cell-based; details: Enterococcus faecalis, ATCC8699, 37° C, 18, 24 and 48 h, read-out: Minimum inhibitory concentration (MIC)
# Procedure: as §2
# Escherichia coli 14 = assay: as above; assay type: cell-based; details: 37° C, 18, 24 and 48 h, read-out: Minimum inhibitory concentration (MIC)
# Procedure: as §2
# [4] = test system: Streptococcus faecalis ATCC species; assay: as above; assay type: cell-based; details: Enterococcus faecalis, 37° C, 18, 24 and 48 h, read-out: Minimum inhibitory concentration (MIC)
# Procedure: as §2
# [5] = test system: Mycobacterium tuberculosis H 37 RV; assay: as above; assay type: cell-based; details: H37RV, 37° C, 18, 24 and 48 h, read-out: Minimum inhibitory concentration (MIC)
# Procedure: as §2
# Pseudomonas aeruginosa B = assay: as above; assay type: cell-based; details: 37° C, 18, 24 and 48 h, read-out: Minimum inhibitory concentration (MIC)
# Procedure: as §2
# Proteus vulgaris 1017 = assay: as above; assay type: cell-based; details: 37° C, 18, 24 and 48 h, read-out: Minimum inhibitory concentration (MIC)
# Procedure: as §2
# [6] = test system: Staphylococcus aureus 7705; assay: as above; assay type: cell-based; details: 37° C, 18, 24 and 48 h, read-out: Minimum inhibitory concentration (MIC)
# Procedure: as §2
# [7] = test system: Streptococcus faecalis ATCC B. H.; assay: as above; assay type: cell-based; details: Enterococcus faecalis, 37° C, 18, 24 and 48 h, read-out: Minimum inhibitory concentration (MIC)
# Procedure: as §2
# [8] = test system: Streptococcus faecalis ATCC Blaschke; assay: as above; assay type: cell-based; details: Enterococcus faecalis, 37° C, 18, 24 and 48 h, read-out: Minimum inhibitory concentration (MIC)
# Procedure: as §2
# [9] = test system: Streptococcus faecalis ATCC 9700; assay: as above; assay type: cell-based; details: Enterococcus faecalis, ATCC9700, 37° C, 18, 24 and 48 h, read-out: Minimum inhibitory concentration (MIC)
# Procedure: as §2
# Escherichia coli 2 = assay: as above; assay type: cell-based; details: 37° C, 18, 24 and 48 h, read-out: Minimum inhibitory concentration (MIC)
# Procedure: as §2
# [10] = test system: Streptococcus faecalis ATCC durans; assay: as above; assay type: cell-based; details: Enterococcus faecalis, 37° C, 18, 24 and 48 h, read-out: Minimum inhibitory concentration (MIC)
# Procedure: as §2
# Pseudomonas aeruginosa M = assay: as above; assay type: cell-based; details: 37° C, 18, 24 and 48 h, read-out: Minimum inhibitory concentration (MIC)
# Procedure: as §2
# Proteus mirabilis G = assay: as above; assay type: cell-based; details: 37° C, 18, 24 and 48 h, read-out: Minimum inhibitory concentration (MIC)
# Procedure: as §2
# Klebsiella K 10 = assay: as above; assay type: cell-based; details: K10, 37° C, 18, 24 and 48 h, read-out: Minimum inhibitory concentration (MIC)
# Procedure: as §2
# [11] = test system: Streptococcus faecalis ATCC liquef.; assay: as above; assay type: cell-based; details: Enterococcus faecalis, 37° C, 18, 24 and 48 h, read-out: Minimum inhibitory concentration (MIC)
# Procedure: as §2
# [12] = test system: Neisseria catharalis N 1/41; assay: as above; assay type: cell-based; details: N1/41, 37° C, 18, 24 and 48 h, read-out: Minimum inhibitory concentration (MIC)
# Procedure: as §2
# [13] = test system: Corynebacterium diphteriae gravis; assay: as above; assay type: cell-based; details: 37° C, 18, 24 and 48 h, read-out: Minimum inhibitory concentration (MIC)
# Procedure: as §2
# Klebsiella 63 = assay: as above; assay type: cell-based; details: 37° C, 18, 24 and 48 h, read-out: Minimum inhibitory concentration (MIC)
# Procedure: as §2
# Escherichia coli A 261 [14] = assay: as above; assay type: cell-based; details: A261, 37° C, 18, 24 and 48 h, read-out: Minimum inhibitory concentration (MIC)
# Procedure: as §2
# Escherichia coli C 165 [15] = assay: as above; assay type: cell-based; details: C165, 37° C, 18, 24 and 48 h, read-out: Minimum inhibitory concentration (MIC)
# Procedure: as §2
# [16] = test system: Streptococcus faecalis ATCC 8564; assay: as above; assay type: cell-based; details: Enterococcus faecalis, ATCC8564, 37° C, 18, 24 and 48 h, read-out: Minimum inhibitory concentration (MIC)
# Procedure: as §2
# Proteus mirabilis 2935 = assay: as above; assay type: cell-based; details: 37° C, 18, 24 and 48 h, read-out: Minimum inhibitory concentration (MIC)
# Procedure: as §2
# Klebsiella ATCC 10031 = assay: as above; assay type: cell-based; details: ATCC10031, 37° C, 18, 24 and 48 h, read-out: Minimum inhibitory concentration (MIC)
# Procedure: as §2
# [17] = test system: Streptococcus faecalis ATCC 8580; assay: as above; assay type: cell-based; details: Enterococcus faecalis, ATCC8580, 37° C, 18, 24 and 48 h, read-out: Minimum inhibitory concentration (MIC)
# Procedure: as §2
# [18] = test system: Streptococcus faecalis ATCC 8711; assay: as above; assay type: cell-based; details: Enterococcus faecalis, ATCC8711, 37° C, 18, 24 and 48 h, read-out: Minimum inhibitory concentration (MIC)
# Procedure: as §2
# Pseudomonas aeruginosa W = assay: as above; assay type: cell-based; details: 37° C, 18, 24 and 48 h, read-out: Minimum inhibitory concentration (MIC)
# Procedure: as §2
# Escherichia coli 183/58 = assay: as above; assay type: cell-based; details: 37° C, 18, 24 and 48 h, read-out: Minimum inhibitory concentration (MIC)
# Procedure: as §2
# [19] = test system: Streptococcus faecalis ATCC 8698; assay: as above; assay type: cell-based; details: Enterococcus faecalis, ATCC8698, 37° C, 18, 24 and 48 h, read-out: Minimum inhibitory concentration (MIC)
# Procedure: as §2
# [20] = test system: Salmonella paratyphii BB II; assay: as above; assay type: cell-based; details: 37° C, 18, 24 and 48 h, read-out: Minimum inhibitory concentration (MIC)
# Procedure: as §2
# Mycoplasma gallisepticum [21] = assay: as above; assay type: cell-based; details: Mycoplasmoides gallisepticum, 37° C, 18, 24 and 48 h, read-out: Minimum inhibitory concentration (MIC)
# Procedure: as §2
# [22] = test system: Staphylococcus aureus 133; assay: as above; assay type: cell-based; details: 37° C, 18, 24 and 48 h, read-out: Minimum inhibitory concentration (MIC)
# Procedure: as §2
# Klebsiella pneumonia 63 = assay: MIC in vitro, plate test (agar), Table 1; assay type: cell-based; details: Klebsiella pneumoniae, about 37° C, readings 24 and 48 h
# Procedure: as §1
# Streptococcus pyogenes W = assay: MIC in vitro, plate test (agar), Table 1; assay type: cell-based; details: about 37° C, readings 24 and 48 h
# Procedure: as §1
# [23] = test system: Pseudomonas aeruginosa Bonn; assay: MIC in vitro, plate test (agar), Table 1; assay type: cell-based; details: about 37° C, readings 24 and 48 h
# Procedure: as §1
# [24] = test system: Pseudomonas aeruginosa Walter; assay: MIC in vitro, plate test (agar), Table 1; assay type: cell-based; details: about 37° C, readings 24 and 48 h
# Procedure: as §1
# Escherichia coli A 261 [25] = assay: MIC in vitro, plate test (agar), Table 1; assay type: cell-based; details: A261, about 37° C, readings 24 and 48 h
# Procedure: as §1
# [26] = test system: Kletosiella pneumonia 8085; assay: MIC in vitro, plate test (agar), Table 1; assay type: cell-based; details: about 37° C, readings 24 and 48 h
# Procedure: as §1
# Escherichia coli C 165 [27] = assay: MIC in vitro, plate test (agar), Table 1; assay type: cell-based; details: C165, about 37° C, readings 24 and 48 h
# Procedure: as §1
# [28] = test system: Staphylococcus aureus 133; assay: MIC in vitro, plate test (agar), Table 1; assay type: cell-based; details: about 37° C, readings 24 and 48 h
# Procedure: as §1
# Mycoplasma granularum = assay: MIC, series dilution test, measured in a PPLO medium, Table 2; assay type: cell-based; details: Acholeplasma granularum, 37° C, 18, 24 and 48 h, read-out: Minimum inhibitory concentration (MIC)
# Procedure: as §2
# (§3) *)measured in a PPLO medium
# Mycoplasma gallisepticum [29] = assay: as above; assay type: cell-based; details: Mycoplasmoides gallisepticum, 37° C, 18, 24 and 48 h, read-out: Minimum inhibitory concentration (MIC)
# Procedure: as §2, §3
# Escherichia coli C 165 [30] = assay: ED100 in mice after intraperitoneal infection, Table 3; assay type: in vivo; details: read-out: effective 100% dose (ED100)
# Procedure: (§4) In animal experiments on mice, the effective 100% dose (ED100) in mg/Kg was determined for certain compounds of the invention after intraperitoneal infection and subcutaneous (s.c.) or oral (p.o.) administration of the preparation.
# [31] = test system: Staphylococcus aureus 133; assay: as above; assay type: in vivo; details: read-out: effective 100% dose (ED100)
# Procedure: as §4
compound,measurement,setting,value
NC(=O)NN=Cc1c(C(=O)O)[n+]([O-])c2ccccc2[n+]1[O-] [Example 12],MIC,Proteus vulgaris species,150 µg/mL
COC(=O)NN=Cc1c(C(=O)O)[n+]([O-])c2ccccc2[n+]1[O-] [Example 13],MIC,[1],25 µg/mL
same,MIC,[2],12 µg/mL
same,MIC,Proteus vulgaris 3400,50 µg/mL
same,MIC,Escherichia coli 55 B 5,3 to 6 µg/mL
same,MIC,[3],100 µg/mL
same,MIC,Escherichia coli 14,12 to 25 µg/mL
same,MIC,[4],100 µg/mL
same,MIC,[5],40 µg/mL
same,MIC,Pseudomonas aeruginosa B,25 µg/mL
same,MIC,Proteus vulgaris 1017,17 µg/mL
same,MIC,[6],12 µg/mL
same,MIC,[7],100 µg/mL
same,MIC,[8],6 to 25 µg/mL
same,MIC,[9],50 µg/mL
same,MIC,Escherichia coli 2,25 to 50 µg/mL
same,MIC,[10],25 µg/mL
same,MIC,Pseudomonas aeruginosa M,25 µg/mL
same,MIC,Proteus mirabilis G,12 µg/mL
same,MIC,Klebsiella K 10,50 µg/mL
same,MIC,[11],50 µg/mL
same,MIC,[12],6 µg/mL
same,MIC,[13],5 to 10 µg/mL
same,MIC,Klebsiella 63,50 µg/mL
same,MIC,Escherichia coli A 261 [14],25 to 50 µg/mL
same,MIC,Escherichia coli C 165 [15],50 to 100 µg/mL
same,MIC,[16],100 µg/mL
same,MIC,Proteus mirabilis 2935,12 µg/mL
same,MIC,Klebsiella ATCC 10031,1 to 2 µg/mL
same,MIC,[17],50 µg/mL
same,MIC,[18],50 µg/mL
same,MIC,Pseudomonas aeruginosa W,400 µg/mL
same,MIC,Escherichia coli 183/58,6 to 12 µg/mL
same,MIC,[19],100 µg/mL
same,MIC,[20],12 µg/mL
same,MIC,Mycoplasma gallisepticum [21],6 µg/mL
same,MIC,[22],1 µg/mL
same,MIC,Proteus vulgaris species,10 µg/mL
same,MIC,Klebsiella pneumonia 63,100 µg/mL
same,MIC,Streptococcus pyogenes W,100 µg/mL
same,MIC,[23],100 µg/mL
same,MIC,[24],100 µg/mL
same,MIC,Escherichia coli A 261 [25],20 µg/mL
same,MIC,[26],20 µg/mL
same,MIC,Escherichia coli C 165 [27],50 µg/mL
same,MIC,[28],10 µg/mL
same,MIC,Mycoplasma granularum,3 µg/mL
same,MIC,Mycoplasma gallisepticum [29],6 µg/mL
same,ED100,"Escherichia coli C 165 [30]; C165, oral (p.c. [sic])",25 mg/kg
same,ED100,"Escherichia coli C 165 [30]; C165, sc, s.c.",25 mg/kg
same,ED100,"[31]; Staphylococcus aureus, 133, oral (p.c. [sic])",50 mg/kg
same,ED100,"[31]; Staphylococcus aureus, 133, sc, s.c.",25 mg/kg
CN(C)N=Cc1c(C(=O)O)[n+]([O-])c2ccccc2[n+]1[O-] [Example 14],ED100,"Escherichia coli C 165 [30]; C165, oral (p.c. [sic])",100 mg/kg
same,ED100,"Escherichia coli C 165 [30]; C165, sc, s.c.",50 mg/kg

# Source: US3984547A, “Veterinary feedstuffs” (Bayer Aktiengesellschaft, priority 1971, dated 1976)
